Like-named read-outs stand apart in the source and are kept apart here. Where a SMILES comes first, the peptide text is derived from it. [ ]: non-standard residue; d: D form. Aib = CC(C)(N)C(=O)O
What was measured:
Test in all cases: biochemical
Assay type in all cases: binding
HLA-DRB1*11:01 = HLA-DRB1*11:01 (Homo sapiens, UniProt P01903+P01911, A100R/A169T/A87E/I96F/K41T/L162R/M171V/P40S/Q125H/Q178H/Q39Y/Q99D/R42S/S66Y/T262R/V115G/W38E)
HLA-DRB1*07:01 = HLA-DRB1*07:01 (Homo sapiens, UniProt P01903+P01911, A100R/A102G/A103Q/D57E/D86V/E43K/F76Y/K127E/L162R/M171V/P40G/Q125H/Q99D/R33Q/R42Y/R54Q/S133A/S66F/T210M/V115G/Y107V/Y59L/Y89S)
HLA-DRB1*04:01 = molecular target: T1, HLA-DRB1*04:01 (Homo sapiens, UniProt P01903+P01911, A100K/A169T/F76Y/I96L/K127E/L162R/M171V/N62H/P40V/Q125Y/R42H/S133A/S149N/S66Y/V115G/V209L/W38E)
T1 construct: Human leukocyte antigen-DR molecules were immunopurified from homozygous EBV B lymphoblastoid cells; endogenous in cells

HLA-DRB5*01:01 = molecular target: T2, HLA-DRB5*01:01 (Homo sapiens, UniProt P01903+Q30154)
T2 construct: Human leukocyte antigen-DR molecules were immunopurified from homozygous EBV B lymphoblastoid cells; endogenous in cells

HLA-DRB1*01:01 = molecular target: T3, HLA-DRB1*01:01 (Homo sapiens, UniProt P01903+P01911, A100R/D57E/F55L/F60I/F76Y/I96L/L162R/M171V/P40L/Q125E/R42F/V115G/Y59C)
T3 construct: Human leukocyte antigen-DR molecules were immunopurified from homozygous EBV B lymphoblastoid cells; endogenous in cells

[1] = […], mean of at least two independent experiments, read-out: IC50 DRB1*1101 (converted)
[2] = […], mean of at least two independent experiments, read-out: IC50 DRB1*0701 (converted)
[3] = […], mean of at least two independent experiments, read-out: IC50 DRB1*0401
[4] = […], mean of at least two independent experiments, read-out: IC50 DRB5*0101
[5] = […], mean of at least two independent experiments, read-out: IC50 DRB1*0101

HLA-DRB1*11:01, sequence (P01903 26-254 limits assumed, other chains not shown): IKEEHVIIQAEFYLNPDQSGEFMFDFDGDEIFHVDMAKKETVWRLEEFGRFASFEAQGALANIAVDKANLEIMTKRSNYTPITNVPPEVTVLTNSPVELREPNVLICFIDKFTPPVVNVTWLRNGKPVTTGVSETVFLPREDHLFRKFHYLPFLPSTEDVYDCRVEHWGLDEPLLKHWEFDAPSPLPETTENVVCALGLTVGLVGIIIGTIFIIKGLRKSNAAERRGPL

Structure (SMILES)	IC50 (HLA-DRB1*11:01; [1])	IC50 (HLA-DRB1*07:01; [2])	IC50 (HLA-DRB1*04:01; [3])	IC50 (HLA-DRB5*01:01; [4])	IC50 (HLA-DRB1*01:01; [5])	IC50 (HLA-DRB1*11:01)	IC50 (HLA-DRB1*07:01)	IC50 (HLA-DRB1*04:01)	IC50 (HLA-DRB5*01:01)	IC50 (HLA-DRB1*01:01; IC50 DRB1*0101)
CC(C)C[C@H](NC(=O)[C@H](CCCCN)NC(=O)[C@H](CC(C)C)NC(=O)[C@@H](NC(=O)[C@H](CC(N)=O)NC(=O)[C@H](CCC(N)=O)NC(=O)[C@H](CCCCN)NC(=O)CN(C(=O)[C@H](Cc1ccc(O)cc1)NC(=O)[C@H](CCCCN)NC(=O)[C@@H]1CCCN1)C(C)C)[C@@H](C)O)C(=O)N[C@@H](C)C(=O)N[C@H](C(=O)O)[C@@H](C)O [Pep4]	6000 nM	710 nM	14 nM	280 nM	5 nM					
CC(C)C[C@H](NC(=O)[C@H](CCCCN)NC(=O)[C@H](CC(C)C)NC(=O)C(C)(C)NC(=O)[C@H](CC(N)=O)NC(=O)[C@H](CCC(N)=O)NC(=O)[C@H](CCCCN)NC(=O)[C@@H](NC(=O)[C@H](Cc1ccc(O)cc1)NC(=O)[C@H](CCCCN)NC(=O)[C@@H]1CCCN1)C(C)C)C(=O)N[C@@H](C)C(=O)N[C@H](C(=O)O)[C@@H](C)O [Aib8]	550 nM	90 nM	140 nM	140 nM	0.8 nM					
CC(C)C[C@H](NC(=O)[C@H](CCCCN)NC(=O)[C@H](CC(C)C)NC(=O)[C@@H](NC(=O)[C@H](CC(N)=O)NC(=O)C(C)(C)NC(=O)[C@H](CCCCN)NC(=O)[C@@H](NC(=O)[C@H](Cc1ccc(O)cc1)NC(=O)[C@H](CCCCN)NC(=O)[C@@H]1CCCN1)C(C)C)[C@@H](C)O)C(=O)N[C@@H](C)C(=O)N[C@H](C(=O)O)[C@@H](C)O [Aib6]	150 nM	75 nM	55000 nM	5 nM	0.7 nM					
CC(C)C[C@H](NC(=O)[C@H](CCCCN)NC(=O)[C@H](CC(C)C)NC(=O)[C@@H](NC(=O)[C@H](CC(N)=O)NC(=O)[C@H](CCC(N)=O)NC(=O)[C@H](CCCCN)NC(=O)[C@@H](NC(=O)C(C)(C)NC(=O)[C@H](CCCCN)NC(=O)[C@@H]1CCCN1)C(C)C)[C@@H](C)O)C(=O)N[C@@H](C)C(=O)N[C@H](C(=O)O)[C@@H](C)O [Aib3]	> 100000 nM	460 nM	> 100000 nM	> 10000 nM	60 nM					
CC(C)C[C@H](NC(=O)[C@H](CCCCN)NC(=O)[C@H](CC(C)C)NC(=O)[C@@H](NC(=O)[C@H](CC(N)=O)NC(=O)[C@H](CCC(N)=O)NC(=O)[C@H](CCCCN)NC(=O)[C@@H](NC(=O)[C@H](Cc1ccc(O)cc1)NC(=O)[C@H](CCCCN)NC(=O)[C@@H]1CCCN1)C(C)C)[C@@H](C)O)C(=O)N[C@@H](C)C(=O)NC(C)(C)C(=O)O [Aib13]	8 nM	6 nM	6 nM	2 nM	0.2 nM					
CC(C)C[C@H](NC(=O)[C@H](CCCCN)NC(=O)[C@H](CC(C)C)NC(=O)[C@@H](NC(=O)[C@H](CC(N)=O)NC(=O)[C@H](CCC(N)=O)NC(=O)[C@H](CCCCN)NC(=O)C(C)(C)NC(=O)[C@H](Cc1ccc(O)cc1)NC(=O)[C@H](CCCCN)NC(=O)[C@@H]1CCCN1)[C@@H](C)O)C(=O)N[C@@H](C)C(=O)N[C@H](C(=O)O)[C@@H](C)O [Aib4]	4000 nM	6000 nM	75 nM	280 nM	10 nM					
CC(C)C[C@H](NC(=O)[C@@H](NC(=O)[C@H](CC(N)=O)NC(=O)[C@H](CCC(N)=O)NC(=O)[C@H](CCCCN)NC(=O)[C@@H](NC(=O)[C@H](Cc1ccc(O)cc1)NC(=O)[C@H](CCCCN)NC(=O)[C@@H]1CCCN1)C(C)C)[C@@H](C)O)C(=O)N[C@@H](CCCCN)C(=O)N[C@@H](CC(C)C)C(=O)N(C)CC(=O)N[C@H](C(=O)O)[C@@H](C)O [Pep12]	14 nM	10 nM	4 nM	3 nM	0.3 nM					
CC(C)C[C@H](NC(=O)[C@@H](NC(=O)[C@H](CC(N)=O)NC(=O)[C@H](CCC(N)=O)NC(=O)[C@H](CCCCN)NC(=O)[C@@H](NC(=O)[C@H](Cc1ccc(O)cc1)NC(=O)[C@H](CCCCN)NC(=O)[C@@H]1CCCN1)C(C)C)[C@@H](C)O)C(=O)N[C@@H](CCCCN)C(=O)NC(C)(C)C(=O)N[C@@H](C)C(=O)N[C@H](C(=O)O)[C@@H](C)O [Aib11]	350 nM	3000 nM	25 nM	95 nM	20 nM					
CC(C)C[C@H](NC(=O)[C@H](CCCCN)NC(=O)[C@H](CC(C)C)NC(=O)[C@@H](NC(=O)[C@H](CC(N)=O)NC(=O)[C@H](CCC(N)=O)NC(=O)C(C)(C)NC(=O)[C@@H](NC(=O)[C@H](Cc1ccc(O)cc1)NC(=O)[C@H](CCCCN)NC(=O)[C@@H]1CCCN1)C(C)C)[C@@H](C)O)C(=O)N[C@@H](C)C(=O)N[C@H](C(=O)O)[C@@H](C)O [Aib5]	300 nM	780 nM	30 nM	600 nM	1 nM					
CC(C)C[C@H](NC(=O)[C@H](CCCCN)NC(=O)[C@H](CC(C)C)NC(=O)[C@@H](NC(=O)[C@H](CC(N)=O)NC(=O)[C@H](CCC(N)=O)NC(=O)[C@H](CCCCN)NC(=O)[C@@H](NC(=O)[C@H](Cc1ccc(O)cc1)NC(=O)[C@H](CCCCN)NC(=O)[C@@H]1CCCN1)C(C)C)[C@@H](C)O)C(=O)NC(C)(C)C(=O)N[C@H](C(=O)O)[C@@H](C)O [Aib12]	100 nM	9 nM	32 nM	5 nM	0.7 nM					
CC(C)C[C@H](NC(=O)[C@H](CCCCN)NC(=O)[C@H](CC(C)C)NC(=O)[C@@H](NC(=O)[C@H](CC(N)=O)NC(=O)[C@H](CCC(N)=O)NC(=O)[C@H](CCCCN)NC(=O)[C@@H](NC(=O)CN(Cc1ccc(O)cc1)C(=O)[C@H](CCCCN)NC(=O)[C@@H]1CCCN1)C(C)C)[C@@H](C)O)C(=O)N[C@@H](C)C(=O)N[C@H](C(=O)O)[C@@H](C)O [Pep3]	> 100000 nM	> 100000 nM	> 10000 nM	14000 nM	4000 nM					
CC(C)C[C@H](NC(=O)[C@H](CCCCN)NC(=O)[C@H](CC(C)C)NC(=O)[C@@H](NC(=O)[C@H](CC(N)=O)NC(=O)[C@H](CCC(N)=O)NC(=O)[C@H](CCCCN)NC(=O)[C@@H](NC(=O)[C@H](Cc1ccc(O)cc1)NC(=O)C(C)(C)NC(=O)[C@@H]1CCCN1)C(C)C)[C@@H](C)O)C(=O)N[C@@H](C)C(=O)N[C@H](C(=O)O)[C@@H](C)O [Aib2] (H-P[Aib]YVKQNTLKLAT-OH)	4000 nM	7700 nM	95 nM	500 nM	8 nM					
CC(C)C[C@H](NC(=O)[C@H](CCCCN)NC(=O)[C@H](CC(C)C)NC(=O)[C@@H](NC(=O)CN(CC(N)=O)C(=O)[C@H](CCC(N)=O)NC(=O)[C@H](CCCCN)NC(=O)[C@@H](NC(=O)[C@H](Cc1ccc(O)cc1)NC(=O)[C@H](CCCCN)NC(=O)[C@@H]1CCCN1)C(C)C)[C@@H](C)O)C(=O)N[C@@H](C)C(=O)N[C@H](C(=O)O)[C@@H](C)O [Pep7]						200 nM	16 nM	450 nM	15 nM	0.3 nM
CC(C)C[C@H](NC(=O)[C@H](CCCCN)NC(=O)[C@H](CC(C)C)NC(=O)[C@@H](NC(=O)[C@H](CC(N)=O)NC(=O)CN(CCC(N)=O)C(=O)[C@H](CCCCN)NC(=O)[C@@H](NC(=O)[C@H](Cc1ccc(O)cc1)NC(=O)[C@H](CCCCN)NC(=O)[C@@H]1CCCN1)C(C)C)[C@@H](C)O)C(=O)N[C@@H](C)C(=O)N[C@H](C(=O)O)[C@@H](C)O [Pep6]	45 nM	290 nM	82 nM	10 nM	0.4 nM					

Reference: paper PMC7991740, “Introduction of Non-natural Amino Acids Into T-Cell Epitopes to Mitigate Peptide-Specific T-Cell Responses” (Frontiers in Immunology, 2021)
